Holding throughout (format): in vivo, human
One series relates to PD tremor. Description: Case report, Patient A: PD tremor under doxycycline added to levodopa. To be noted: prior to initiation of doxycycline. An excerpt:
(§1) Patient A is a person diagnosed with PD approximately one and a half years earlier and treated with levodopa. […] The patient also experienced intermittent irritable bowel disorder symptoms.

A further series has as its system seborrheic dermatitis. Description: Case report, Patient A: seborrheic dermatitis under doxycycline.
Text: as §1

A short description of series [1]: Case report, Patient A: tolerability of doxycycline. To be noted: after two additional months on doxycycline.
Text: as §1

SMILES strings stand for the structures.

With `N[C@@H](Cc1ccc(O)c(O)c1)C(=O)O` [levodopa, Levodopa], the “interval between required levodopa dose increases (worsening PD, most notably tremor)” value with PD tremor is reported as roughly 3 months.
With `C[C@H]1c2cccc(O)c2C(=O)C2=C(O)[C@]3(O)C(=O)C(C(N)=O)=C(O)[C@@H](N(C)C)[C@@H]3[C@@H](O)[C@@H]21` [doxycycline, Doxycycline], in the series with seborrheic dermatitis (PD patient on levodopa, doxycycline 100 mg tablet once a day, first course), the “time to resolution of seborrheic dermatitis” value is reported as no more than 3 weeks. Moreover, in the series with seborrheic dermatitis (doxycycline discontinued after approximately 8 weeks (first de-challenge)), the “time to recurrence of seborrheic dermatitis after discontinuation” value is reported as no more than 2 weeks. For the same compound, the “adverse event leading to stop of treatment” value in series [1] is given as “nausea”.

The values above are taken from patent US20260158046A1, “TREATMENT OF NEURODEGENERATIVE DISORDERS WITH DOXYCYCLINE ALONE OR IN COMBINATION WITH LEVODOPA” (Biohaven Therapeutics Ltd., priority 2023, published 2026).
